Data: PubChem BioAssay (NCI)
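Growth conditions: 96-well plates. Treatment: test compound, 48 hours, 5 concentrations. Analysis: linear interpolation between bracketing concentrations; unreached endpoints set to highest concentration. GI50 = concentration required for 50% inhibition of growth. TGI is the concentration that stops growth completely.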

What was measured:
Test in all cases: growth of human tumour cells (NCI), 48 h
786-0 renal = tested on: 786-0 renal
A549 NSCLC = tested on: A549 NSCLC
ACHN renal = tested on: ACHN renal
BT-549 breast = tested on: BT-549 breast
CAKI-1 renal = tested on: CAKI-1 renal
COLO 205 colon = tested on: COLO 205 colon
DU-145 prostate = tested on: DU-145 prostate
EKVX NSCLC = tested on: EKVX NSCLC
HCT-116 colon = tested on: HCT-116 colon
HCT-15 colon = tested on: HCT-15 colon
HL-60(TB) leukemia = tested on: HL-60(TB) leukemia
HOP-62 NSCLC = tested on: HOP-62 NSCLC
HOP-92 NSCLC = tested on: HOP-92 NSCLC
HS 578T breast = tested on: HS 578T breast
HT29 colon = tested on: HT29 colon
K-562 leukemia = tested on: K-562 leukemia
KM12 colon = tested on: KM12 colon
LOX IMVI melanoma = tested on: LOX IMVI melanoma
M14 melanoma = tested on: M14 melanoma
MALME-3M melanoma = tested on: MALME-3M melanoma
MCF7 breast = tested on: MCF7 breast
MDA-MB-231 breast = tested on: MDA-MB-231 breast
MDA-MB-435 = tested on: MDA-MB-435
MDA-N = tested on: MDA-N
MOLT-4 leukemia = tested on: MOLT-4 leukemia
NCI-H226 lung = tested on: NCI-H226 lung
NCI-H23 lung = tested on: NCI-H23 lung
NCI-H522 lung = tested on: NCI-H522 lung
NCI/ADR-RES ovarian = tested on: NCI/ADR-RES ovarian
OVCAR-3 ovarian = tested on: OVCAR-3 ovarian
OVCAR-4 ovarian = tested on: OVCAR-4 ovarian
OVCAR-5 ovarian = tested on: OVCAR-5 ovarian
OVCAR-8 ovarian = tested on: OVCAR-8 ovarian
PC-3 prostate = tested on: PC-3 prostate
RPMI-8226 leukemia = tested on: RPMI-8226 leukemia
RXF 393 renal = tested on: RXF 393 renal
SF-268 CNS = tested on: SF-268 CNS
SF-295 CNS = tested on: SF-295 CNS
SF-539 CNS = tested on: SF-539 CNS
SK-MEL-2 melanoma = tested on: SK-MEL-2 melanoma
SK-MEL-28 melanoma = tested on: SK-MEL-28 melanoma
SK-MEL-5 melanoma = tested on: SK-MEL-5 melanoma
SK-OV-3 ovarian = tested on: SK-OV-3 ovarian
SN12C renal = tested on: SN12C renal
SNB-19 CNS = tested on: SNB-19 CNS
SNB-75 CNS = tested on: SNB-75 CNS
SR leukemia = tested on: SR leukemia
SW-620 colon = tested on: SW-620 colon
T-47D breast = tested on: T-47D breast
TK-10 renal = tested on: TK-10 renal
U251 CNS = tested on: U251 CNS
UACC-257 melanoma = tested on: UACC-257 melanoma
UACC-62 melanoma = tested on: UACC-62 melanoma
UO-31 renal = tested on: UO-31 renal
A498 renal = tested on: A498 renal
HCC-2998 colon = tested on: HCC-2998 colon
IGROV1 ovarian = tested on: IGROV1 ovarian

O=[N+]([O-])c1ccc2c3c1[C@H]1O[C@H]1c1cccc(c1-3)[C@@H]1O[C@H]21
TGI (786-0 renal): 3.56 µM | TGI (A549 NSCLC): 15.5 µM | TGI (ACHN renal): 5.17 µM | TGI (BT-549 breast): 3.89 µM | TGI (CAKI-1 renal): 3.73 µM | GI50 (COLO 205 colon): 1.72 µM | TGI (COLO 205 colon): 3.69 µM | TGI (DU-145 prostate): 6.25 µM | TGI (EKVX NSCLC): 4.08 µM | TGI (HCT-116 colon): 3.59 µM | TGI (HCT-15 colon): 4.47 µM | TGI (HL-60(TB) leukemia): 8.85 µM | TGI (HOP-62 NSCLC): 10.8 µM | TGI (HOP-92 NSCLC): 5.03 µM | TGI (HS 578T breast): 7.06 µM | TGI (HT29 colon): 6.57 µM | TGI (K-562 leukemia): > 100 µM | TGI (KM12 colon): 5.86 µM | TGI (LOX IMVI melanoma): 1.28 µM | TGI (M14 melanoma): 3.75 µM | TGI (MALME-3M melanoma): 4.64 µM | GI50 (MCF7 breast): 2.78 µM | TGI (MCF7 breast): > 100 µM | TGI (MDA-MB-231 breast): 3.87 µM | TGI (MDA-MB-435): 4.14 µM | TGI (MDA-N): 4.91 µM | TGI (MOLT-4 leukemia): > 100 µM | TGI (NCI-H226 lung): > 100 µM | TGI (NCI-H23 lung): 3.88 µM | TGI (NCI-H522 lung): 3.42 µM | TGI (NCI/ADR-RES ovarian): 5.65 µM | TGI (OVCAR-3 ovarian): 6.2 µM | TGI (OVCAR-4 ovarian): 4.46 µM | TGI (OVCAR-5 ovarian): 6.77 µM | TGI (OVCAR-8 ovarian): 3.24 µM | TGI (PC-3 prostate): > 20 µM | TGI (RPMI-8226 leukemia): > 100 µM | TGI (RXF 393 renal): 3.38 µM | TGI (SF-268 CNS): 4.38 µM | TGI (SF-295 CNS): 12.3 µM | TGI (SF-539 CNS): 4.09 µM | TGI (SK-MEL-2 melanoma): > 100 µM | TGI (SK-MEL-28 melanoma): 6.73 µM | TGI (SK-MEL-5 melanoma): 7.82 µM | TGI (SK-OV-3 ovarian): 11.6 µM | TGI (SN12C renal): 4.69 µM | TGI (SNB-19 CNS): 13.6 µM | TGI (SNB-75 CNS): 4.1 µM | TGI (SR leukemia): > 100 µM | TGI (SW-620 colon): 2.75 µM | TGI (T-47D breast): 6.18 µM | TGI (TK-10 renal): > 30 µM | TGI (U251 CNS): 3.98 µM | TGI (UACC-257 melanoma): 4.87 µM | TGI (UACC-62 melanoma): 3.69 µM | TGI (UO-31 renal): 3.62 µM

Cc1nn(CN2CCN(C)CC2)c(=S)n1/N=C/c1ccc(-c2ccc(Cl)cc2Cl)o1
TGI (786-0 renal): > 100 µM | TGI (A498 renal): 56.8 µM | TGI (A549 NSCLC): > 100 µM | TGI (ACHN renal): > 100 µM | TGI (BT-549 breast): > 100 µM | TGI (COLO 205 colon): > 100 µM | TGI (DU-145 prostate): > 100 µM | TGI (EKVX NSCLC): 88.8 µM | TGI (HCC-2998 colon): > 100 µM | TGI (HCT-116 colon): > 100 µM | TGI (HCT-15 colon): > 100 µM | TGI (HL-60(TB) leukemia): > 100 µM | TGI (HOP-62 NSCLC): > 100 µM | TGI (HOP-92 NSCLC): > 100 µM | TGI (HS 578T breast): > 100 µM | TGI (HT29 colon): > 100 µM | TGI (IGROV1 ovarian): > 100 µM | TGI (K-562 leukemia): > 100 µM | TGI (KM12 colon): > 100 µM | TGI (LOX IMVI melanoma): > 100 µM | TGI (M14 melanoma): > 100 µM | TGI (MALME-3M melanoma): > 100 µM | TGI (MCF7 breast): > 100 µM | TGI (MDA-MB-231 breast): > 100 µM | TGI (MDA-MB-435): > 100 µM | TGI (MDA-N): > 100 µM | TGI (MOLT-4 leukemia): 98.2 µM | TGI (NCI-H226 lung): 95.2 µM | TGI (NCI-H23 lung): > 100 µM | TGI (NCI-H522 lung): > 100 µM | TGI (NCI/ADR-RES ovarian): > 100 µM | TGI (OVCAR-3 ovarian): > 100 µM | TGI (OVCAR-4 ovarian): > 100 µM | TGI (OVCAR-5 ovarian): > 100 µM | TGI (OVCAR-8 ovarian): > 100 µM | TGI (PC-3 prostate): > 100 µM | TGI (SF-268 CNS): > 100 µM | TGI (SF-539 CNS): > 100 µM | TGI (SK-MEL-2 melanoma): > 100 µM | TGI (SK-MEL-28 melanoma): > 100 µM | TGI (SK-MEL-5 melanoma): > 100 µM | TGI (SK-OV-3 ovarian): > 100 µM | TGI (SN12C renal): > 100 µM | TGI (SNB-19 CNS): > 100 µM | TGI (SR leukemia): > 100 µM | TGI (SW-620 colon): > 100 µM | TGI (T-47D breast): > 100 µM | TGI (TK-10 renal): > 100 µM | TGI (U251 CNS): > 100 µM | TGI (UACC-257 melanoma): > 100 µM | TGI (UACC-62 melanoma): > 100 µM | TGI (UO-31 renal): > 100 µM
